Results reported in PMC4579270, “Identification and Characterization of an Irreversible Inhibitor of CDK2” (Chemistry & Biology, 2015).

Key:
Experiment in all cases: Dundee protein kinase screen
Type in all cases: biochemical
[1] = biological target: T1, ASK1 (Homo sapiens, UniProt Q99683); conditions: ASK1, 1µM; read-out: %Remaining activity at 1µM NU6300
T1 sequence (Q99683 1-1374): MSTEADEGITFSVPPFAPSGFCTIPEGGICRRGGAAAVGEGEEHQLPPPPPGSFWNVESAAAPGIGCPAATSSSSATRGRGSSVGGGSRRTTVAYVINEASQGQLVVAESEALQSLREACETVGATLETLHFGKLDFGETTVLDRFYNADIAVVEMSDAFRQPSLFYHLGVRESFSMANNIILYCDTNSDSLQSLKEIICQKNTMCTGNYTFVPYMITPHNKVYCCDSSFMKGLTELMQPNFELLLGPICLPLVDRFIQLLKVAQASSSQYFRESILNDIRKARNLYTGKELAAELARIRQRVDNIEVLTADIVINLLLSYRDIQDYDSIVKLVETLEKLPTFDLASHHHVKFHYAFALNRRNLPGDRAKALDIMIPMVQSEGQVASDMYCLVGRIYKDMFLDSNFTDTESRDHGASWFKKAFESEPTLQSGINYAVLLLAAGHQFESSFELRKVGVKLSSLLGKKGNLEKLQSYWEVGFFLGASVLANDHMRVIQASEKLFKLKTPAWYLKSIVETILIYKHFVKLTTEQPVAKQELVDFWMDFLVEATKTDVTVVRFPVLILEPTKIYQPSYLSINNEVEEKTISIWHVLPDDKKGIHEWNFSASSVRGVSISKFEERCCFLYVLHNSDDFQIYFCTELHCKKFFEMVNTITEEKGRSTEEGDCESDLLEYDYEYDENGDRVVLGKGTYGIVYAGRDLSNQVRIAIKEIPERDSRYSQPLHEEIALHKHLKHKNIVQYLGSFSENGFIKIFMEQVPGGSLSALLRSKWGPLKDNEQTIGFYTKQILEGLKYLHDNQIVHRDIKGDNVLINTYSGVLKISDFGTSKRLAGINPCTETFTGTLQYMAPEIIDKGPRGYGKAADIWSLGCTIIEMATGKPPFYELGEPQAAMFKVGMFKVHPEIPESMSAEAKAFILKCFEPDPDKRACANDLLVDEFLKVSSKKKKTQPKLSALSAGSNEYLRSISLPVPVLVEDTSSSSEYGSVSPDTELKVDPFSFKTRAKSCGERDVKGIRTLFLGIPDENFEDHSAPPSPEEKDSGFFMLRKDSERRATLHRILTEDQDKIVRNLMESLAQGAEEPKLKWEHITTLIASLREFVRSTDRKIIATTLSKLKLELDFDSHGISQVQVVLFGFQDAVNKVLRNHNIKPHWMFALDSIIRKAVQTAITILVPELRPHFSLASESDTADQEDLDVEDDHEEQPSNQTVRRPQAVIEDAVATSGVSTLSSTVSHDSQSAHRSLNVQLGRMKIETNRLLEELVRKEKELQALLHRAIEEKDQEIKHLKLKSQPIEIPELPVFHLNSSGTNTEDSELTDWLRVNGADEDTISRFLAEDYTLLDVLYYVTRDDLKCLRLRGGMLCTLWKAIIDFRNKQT
Method: (§1) Prior to determining its cellular activity, we carried out a screen to assess its selectivity against a panel of 131 protein kinases under conditions that would not distinguish between a reversible or irreversible mode of action. […] These 13 kinases and 29 additional kinases, selected for their known sensitivity to other inhibitors within the purine series, were then tested in a modified screening format in which the assay was repeated following a 4-hr pre-incubation (Table S3B). […] However, conformational flexibility around the active site may promote such an interaction with a residue from another part of the structure ([Martin et al., 2012]).
(§2) Table S3, Related to Figure 4. NCL-0006300 protein kinase selectivity. (A) NU6300 was tested at a single concentration of 1µM against 131 protein kinases present in a Dundee protein kinase screen (Bain et al., 2007). Values given are % activity remaining and are the average of duplicate measurements: 0-25% (red), 26-50% (yellow), 51-80% (black) and above 81% (green). The kinase domain sequences (as defined by UniProt) of […]
(§3) have a lysine residue at a position close to CDK2 Lys88 or Lys89. However, in the structure of tyrosine-protein kinase BTK (PDB ID: 3GEN) the residue equivalent to CDK2 Asp86 is Cys481 and therefore there is the potential for a covalent adduct to be formed through this side chain. Ephrin type-B receptor 3 (UniProt entry P54753) also encodes a cysteine residue (Cys717) that by sequence alignment would be predicted to be close to the CDK2 lysine pair. (B) Selected kinases were re-tested in the Dundee kinase screen against NU6300 at a single concentration of 0.5 µM both in the standard assay format and following a 4 hour pre-incubation in the presence of NU6300. Kinases which have very low activity after the 4 hour incubation so that results might not be wholly reliable are boxed in salmon. Kinases where the activity after a 4 hour pre-incubation is < 50% that in the standard assay format are highlighted in red.

[2] = biological target: HER4 (Homo sapiens, UniProt Q15303); conditions: HER4, 1µM; read-out: %Remaining activity at 1µM NU6300
Method: as §1, §2, §3

[3] = biological target: HIPK2 (Homo sapiens, UniProt Q9H2X6); conditions: HIPK2, 1µM; read-out: %Remaining activity at 1µM NU6300
Method: as §1, §2, §3

[4] = biological target: IR (Homo sapiens, UniProt P06213); conditions: read-out: %Remaining activity at 1µM NU6300
Method: as §1, §2, §3

[5] = biological target: NEK6 (Homo sapiens, UniProt Q9HC98); conditions: NEK6, 1µM; read-out: %Remaining activity at 1µM NU6300
Method: as §1, §2, §3

[6] = biological target: PKCζ (Homo sapiens, UniProt Q05513); conditions: read-out: %Remaining activity at 1µM NU6300
Method: as §1, §2, §3

[7] = biological target: PRK2 (Homo sapiens, UniProt Q16513); conditions: PRK2, 1µM; read-out: %Remaining activity at 1µM NU6300
Method: as §1, §2, §3

[8] = biological target: p38γ MAPK (Homo sapiens, UniProt P53778); conditions: read-out: %Remaining activity at 1µM NU6300
Method: as §1, §2, §3

Chain of p38γ MAPK (P53778 whole entry): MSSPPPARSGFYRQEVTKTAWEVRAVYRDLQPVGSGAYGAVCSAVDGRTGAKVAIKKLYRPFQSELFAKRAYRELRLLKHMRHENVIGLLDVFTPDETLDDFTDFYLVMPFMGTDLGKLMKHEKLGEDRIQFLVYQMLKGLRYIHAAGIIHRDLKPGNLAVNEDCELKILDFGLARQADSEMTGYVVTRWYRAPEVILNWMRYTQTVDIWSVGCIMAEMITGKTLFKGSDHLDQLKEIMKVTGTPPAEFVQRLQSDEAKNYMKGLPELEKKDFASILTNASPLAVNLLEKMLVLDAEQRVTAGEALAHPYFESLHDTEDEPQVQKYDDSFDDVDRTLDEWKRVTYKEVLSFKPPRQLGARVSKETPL
Chain of PKCζ (Q05513 whole entry): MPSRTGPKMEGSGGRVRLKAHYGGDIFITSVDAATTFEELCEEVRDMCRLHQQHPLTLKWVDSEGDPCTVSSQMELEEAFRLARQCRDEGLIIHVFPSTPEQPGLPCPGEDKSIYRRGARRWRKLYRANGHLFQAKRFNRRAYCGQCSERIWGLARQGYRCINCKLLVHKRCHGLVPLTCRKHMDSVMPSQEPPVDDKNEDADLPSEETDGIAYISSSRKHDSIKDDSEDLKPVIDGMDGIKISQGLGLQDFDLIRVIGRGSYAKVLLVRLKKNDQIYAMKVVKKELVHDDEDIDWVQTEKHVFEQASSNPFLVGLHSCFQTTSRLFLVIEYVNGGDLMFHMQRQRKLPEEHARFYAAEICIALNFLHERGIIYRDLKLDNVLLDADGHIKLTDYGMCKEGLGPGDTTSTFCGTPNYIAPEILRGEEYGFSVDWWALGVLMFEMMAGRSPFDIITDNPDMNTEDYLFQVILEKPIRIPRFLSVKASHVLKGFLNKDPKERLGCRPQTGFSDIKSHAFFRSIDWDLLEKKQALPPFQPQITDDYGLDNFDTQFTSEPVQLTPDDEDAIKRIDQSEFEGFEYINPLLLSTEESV
Chain of NEK6 (Q9HC98 whole entry): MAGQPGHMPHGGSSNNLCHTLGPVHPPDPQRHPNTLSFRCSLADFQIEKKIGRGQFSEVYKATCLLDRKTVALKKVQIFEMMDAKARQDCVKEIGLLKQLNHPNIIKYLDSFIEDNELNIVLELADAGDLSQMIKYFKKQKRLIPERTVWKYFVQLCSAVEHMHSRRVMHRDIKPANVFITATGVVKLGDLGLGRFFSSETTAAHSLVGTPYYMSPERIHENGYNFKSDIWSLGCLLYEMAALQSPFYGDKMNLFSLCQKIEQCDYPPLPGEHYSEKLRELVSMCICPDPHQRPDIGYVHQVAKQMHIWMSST
Chain of HIPK2 (Q9H2X6 whole entry): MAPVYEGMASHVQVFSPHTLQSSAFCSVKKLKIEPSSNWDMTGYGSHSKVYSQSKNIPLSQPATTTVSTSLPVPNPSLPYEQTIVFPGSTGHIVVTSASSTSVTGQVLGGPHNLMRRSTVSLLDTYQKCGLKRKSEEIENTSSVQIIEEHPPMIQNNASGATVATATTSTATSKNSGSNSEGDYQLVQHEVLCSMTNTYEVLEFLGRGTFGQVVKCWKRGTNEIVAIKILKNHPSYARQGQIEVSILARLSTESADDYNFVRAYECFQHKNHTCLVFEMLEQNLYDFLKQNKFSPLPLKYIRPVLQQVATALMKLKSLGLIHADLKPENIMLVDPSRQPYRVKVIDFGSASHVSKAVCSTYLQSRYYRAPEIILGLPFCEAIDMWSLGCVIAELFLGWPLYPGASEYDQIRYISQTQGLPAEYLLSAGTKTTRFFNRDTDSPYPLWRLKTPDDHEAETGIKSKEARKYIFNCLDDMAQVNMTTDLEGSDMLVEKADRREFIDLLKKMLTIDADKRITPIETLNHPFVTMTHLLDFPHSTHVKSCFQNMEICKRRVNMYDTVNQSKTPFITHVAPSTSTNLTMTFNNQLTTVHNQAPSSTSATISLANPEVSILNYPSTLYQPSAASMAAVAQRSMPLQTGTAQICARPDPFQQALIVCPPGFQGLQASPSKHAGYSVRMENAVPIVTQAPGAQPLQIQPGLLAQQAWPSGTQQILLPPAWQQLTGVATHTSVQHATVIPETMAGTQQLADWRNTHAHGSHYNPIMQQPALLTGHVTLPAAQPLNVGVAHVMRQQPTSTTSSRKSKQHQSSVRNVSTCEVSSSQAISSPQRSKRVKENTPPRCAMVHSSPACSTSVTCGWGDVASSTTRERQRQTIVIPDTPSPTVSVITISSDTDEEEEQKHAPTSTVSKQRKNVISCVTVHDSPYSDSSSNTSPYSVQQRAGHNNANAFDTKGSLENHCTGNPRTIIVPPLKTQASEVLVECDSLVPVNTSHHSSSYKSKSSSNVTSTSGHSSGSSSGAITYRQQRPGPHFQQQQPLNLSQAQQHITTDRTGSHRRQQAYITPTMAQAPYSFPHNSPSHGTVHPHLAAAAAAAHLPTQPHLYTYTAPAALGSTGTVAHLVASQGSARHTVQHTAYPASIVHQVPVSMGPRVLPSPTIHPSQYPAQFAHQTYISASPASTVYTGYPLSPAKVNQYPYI
Chain of IR (P06213 28-1382): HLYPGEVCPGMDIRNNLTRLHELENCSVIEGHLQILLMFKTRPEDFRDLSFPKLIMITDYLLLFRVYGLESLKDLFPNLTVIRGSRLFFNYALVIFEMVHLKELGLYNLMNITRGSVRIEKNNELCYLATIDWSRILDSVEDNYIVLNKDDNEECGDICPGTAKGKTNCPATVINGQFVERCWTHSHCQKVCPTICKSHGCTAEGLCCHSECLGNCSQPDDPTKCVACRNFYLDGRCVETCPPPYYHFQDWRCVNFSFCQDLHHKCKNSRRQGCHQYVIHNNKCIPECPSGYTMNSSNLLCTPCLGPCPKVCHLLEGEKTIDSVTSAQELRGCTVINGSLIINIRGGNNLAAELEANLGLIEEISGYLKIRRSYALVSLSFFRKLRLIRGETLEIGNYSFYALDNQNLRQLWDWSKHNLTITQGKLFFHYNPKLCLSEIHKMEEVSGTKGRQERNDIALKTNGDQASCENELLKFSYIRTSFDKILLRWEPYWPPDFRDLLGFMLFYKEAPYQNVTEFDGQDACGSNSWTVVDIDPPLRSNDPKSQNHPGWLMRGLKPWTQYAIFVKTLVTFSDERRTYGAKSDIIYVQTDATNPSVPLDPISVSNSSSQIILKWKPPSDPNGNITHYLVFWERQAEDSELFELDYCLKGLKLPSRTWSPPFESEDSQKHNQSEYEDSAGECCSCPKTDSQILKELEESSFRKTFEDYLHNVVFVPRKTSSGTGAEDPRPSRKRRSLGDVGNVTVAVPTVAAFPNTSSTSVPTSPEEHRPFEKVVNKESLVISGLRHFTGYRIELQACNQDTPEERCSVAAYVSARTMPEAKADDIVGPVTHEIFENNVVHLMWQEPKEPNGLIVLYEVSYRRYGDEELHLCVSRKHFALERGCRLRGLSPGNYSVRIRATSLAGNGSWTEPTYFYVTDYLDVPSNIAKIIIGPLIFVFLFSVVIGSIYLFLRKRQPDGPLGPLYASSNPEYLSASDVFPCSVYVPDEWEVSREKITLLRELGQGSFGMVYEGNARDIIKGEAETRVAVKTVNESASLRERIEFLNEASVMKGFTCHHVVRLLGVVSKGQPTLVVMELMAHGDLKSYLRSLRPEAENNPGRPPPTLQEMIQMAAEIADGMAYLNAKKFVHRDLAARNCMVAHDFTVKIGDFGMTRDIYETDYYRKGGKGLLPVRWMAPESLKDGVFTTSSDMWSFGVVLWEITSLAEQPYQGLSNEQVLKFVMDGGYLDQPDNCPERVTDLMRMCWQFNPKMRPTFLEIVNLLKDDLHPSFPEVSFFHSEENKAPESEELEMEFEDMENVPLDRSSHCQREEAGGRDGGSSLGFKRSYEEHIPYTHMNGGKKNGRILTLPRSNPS
Chain of PRK2 (Q16513 whole entry): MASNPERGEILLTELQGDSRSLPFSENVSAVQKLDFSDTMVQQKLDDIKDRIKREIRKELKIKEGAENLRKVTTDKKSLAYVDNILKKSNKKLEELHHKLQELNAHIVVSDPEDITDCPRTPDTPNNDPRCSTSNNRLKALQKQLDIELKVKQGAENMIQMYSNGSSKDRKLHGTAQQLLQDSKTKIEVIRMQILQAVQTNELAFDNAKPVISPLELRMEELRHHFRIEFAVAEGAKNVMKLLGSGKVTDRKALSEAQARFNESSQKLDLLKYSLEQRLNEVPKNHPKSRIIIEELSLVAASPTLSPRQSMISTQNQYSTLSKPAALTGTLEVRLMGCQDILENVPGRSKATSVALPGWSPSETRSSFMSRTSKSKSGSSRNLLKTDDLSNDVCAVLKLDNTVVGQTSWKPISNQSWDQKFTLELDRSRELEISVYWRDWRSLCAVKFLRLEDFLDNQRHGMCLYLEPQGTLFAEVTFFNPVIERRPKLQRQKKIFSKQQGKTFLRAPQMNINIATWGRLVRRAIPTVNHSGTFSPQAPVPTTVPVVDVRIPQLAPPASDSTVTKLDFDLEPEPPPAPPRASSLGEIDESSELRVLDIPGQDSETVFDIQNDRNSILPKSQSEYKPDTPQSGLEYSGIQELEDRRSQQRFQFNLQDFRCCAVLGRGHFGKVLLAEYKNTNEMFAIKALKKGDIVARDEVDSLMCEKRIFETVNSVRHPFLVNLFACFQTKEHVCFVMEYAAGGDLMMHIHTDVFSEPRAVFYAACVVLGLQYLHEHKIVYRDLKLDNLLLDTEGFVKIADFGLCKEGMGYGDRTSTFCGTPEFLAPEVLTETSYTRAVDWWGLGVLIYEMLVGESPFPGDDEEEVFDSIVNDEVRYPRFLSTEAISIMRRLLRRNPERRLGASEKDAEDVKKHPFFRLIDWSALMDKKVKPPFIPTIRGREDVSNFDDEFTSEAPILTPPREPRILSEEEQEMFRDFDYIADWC

C=CS(=O)(=O)c1ccc(Nc2nc(OCC3CCCCC3)c3nc[nH]c3n2)cc1 [NU6300, 6-(cyclohexylmethoxy)-N-(4-(vinylsulfonyl)phenyl)-9H-purin-2-amine]
remaining activity at 1 µM [1]: 49%
remaining activity at 1 µM [2]: 73%
remaining activity at 1 µM [3]: 61%
remaining activity at 1 µM [4]: 32%
remaining activity at 1 µM [5]: 70%
remaining activity at 1 µM [6]: 100%
remaining activity at 1 µM [7]: 50%
remaining activity at 1 µM [8]: 104%
